According to patent publication US10934297B2, “5-heteroaryl substituted indazole-3-carboxamides and preparation and use thereof” (Samumed, LLC, priority 2018, dated 2021):

Experiments:
DYRK1A kinase = DYRK1A kinase (Homo sapiens (Human), UniProt Q13627); test: DYRK1A kinase assay (Ser/Thr 18 peptide Z-lyte FRET); format: biochemical; conditions: read-out: EC50 (method: IC50)
How it was run: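 This Z-lyte FRET assay reads the coumarin/fluorescein emission ratio. Compounds were incubated with the reaction mixture for 1 h at room temperature, followed by development reagent for a further 1 h at room temperature, in duplicate.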

[1] = test system: SW480 colon carcinoma cells; test: Cell viability assay (CellTiter-Glo) in SW480 colon carcinoma cells; format: cell-based, human; conditions: Homo sapiens, 96 h, four days
How it was run: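 SW480 cells stably carrying an Sp5-promoter luciferase reporter were plated at 2,000 cells/well in DMEM with 1% FBS and treated with compound for four days at 37 °C. Viability was read as ATP luminescence with CellTiter-Glo after about 12 min; DMSO-treated wells served as controls.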

[2] = test system: Wnt activity (Sp5-Luc reporter in SW480 cells); test: Screening assay for Wnt activity: Sp5-Luc reporter gene assay in SW480 colon carcinoma cells; format: cell-based, human; conditions: Homo sapiens, 36 to 48 hours
How it was run: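 SW480 colon carcinoma cells stably carrying a lentiviral luciferase reporter driven by an Sp5 promoter with eight TCF/LEF sites, plated at 4,000 cells/well in DMEM with 1% FBS. Compound exposure for 36–48 h at 37 °C, then luminescence read. Signals normalized to DMSO; EC50 from four-parameter nonlinear fit.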

GSK3β kinase = GSK3β kinase (Homo sapiens (Human), UniProt P49841); test: GSK3β kinase assay (Ser/Thr 09 peptide Z-lyte FRET); format: biochemical; conditions: read-out: EC50 (method: IC50)
How it was run: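 Non-radioactive Z-lyte FRET read-out, kinase activity expressed as coumarin/fluorescein emission ratio. Compounds incubated with the reaction mixture one hour at room temperature in duplicate, then development buffer added for another hour. IC50 from non-linear regression of dose-response curves.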

[3] = test system: primary human fibroblasts derived from IPF patients (LL29 cells); test: Inhibition of the fibrotic process: αSMA staining in TGF-β1 treated LL29 fibroblasts; format: cell-based; conditions: Homo sapiens, Fibroblast, 96 h; LL29 cells, TGF-β1 20 ng/mL, 4 days, % αSMA positive cells
How it was run: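 LL29 fibroblasts from IPF patients, in F12 medium with 1% FBS, treated with TGF-β1 plus compound; TGF-β1 with DMSO as positive control, DMSO alone as negative control. After 4 days' incubation, SYTOX green nucleic acid stain added at 1 μM final, 30 min at room temperature.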

IL-6 = IL-6 inhibition in LPS-stimulated human peripheral blood mononuclear cells (HTRF); format: cell-based; conditions: Homo sapiens, PBMC; for EC50: huPBMCs, LPS 50 ng/mL, 22 hours, IL-6 HTRF
How it was run: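 Fresh human PBMCs at 1×10e6 cells/mL in RPMI/1% FBS were stimulated with 50 ng/mL E. coli 0111:B4 LPS added 2 h after compound, then incubated 22 h at 37° C. Secreted IL-6 was measured by HTRF (665/620 nm ratio) after 3 h at room temperature. EC50 was taken from activity normalized to DMSO-treated cells.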

[4] = test system: primary human mesenchymal stem cells (hMSCs); test: Tenocyte differentiation assay (SCXA-positive cells) in hMSCs; format: cell-based; conditions: for EC50: Homo sapiens, Mesenchymal stem cells, 96 h, hMSCs, 4 days, SCXA positive cells; for percent in parentheses under EC50 >100: given for EC50 >100 μM, meaning not defined in this example
How it was run: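 Passage 3–6 hMSCs were compound-treated, fixed in 4% formaldehyde and stained overnight at 4 °C with anti-SCXA antibody; SCXA-positive cells were counted by imaging. Counts were normalized to the mean of 12 DMSO wells as fold change, averaged over 3 replicate wells per concentration, and curve-fitted for EC50.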

GSK3β kinase, sequence (P49841 whole entry): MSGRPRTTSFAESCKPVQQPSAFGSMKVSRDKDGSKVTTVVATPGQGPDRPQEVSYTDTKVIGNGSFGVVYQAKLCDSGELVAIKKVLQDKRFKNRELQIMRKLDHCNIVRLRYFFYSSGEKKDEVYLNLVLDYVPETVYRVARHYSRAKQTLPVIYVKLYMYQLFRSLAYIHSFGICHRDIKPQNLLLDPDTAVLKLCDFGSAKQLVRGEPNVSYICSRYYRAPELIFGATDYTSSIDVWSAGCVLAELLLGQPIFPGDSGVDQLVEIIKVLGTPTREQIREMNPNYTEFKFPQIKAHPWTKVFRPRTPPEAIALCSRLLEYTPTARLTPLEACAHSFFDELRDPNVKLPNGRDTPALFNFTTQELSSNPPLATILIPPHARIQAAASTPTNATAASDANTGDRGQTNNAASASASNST

Row | IC50 (DYRK1A kinase) [nM] | EC50 [1] [nM] | EC50 [2] [nM] | IC50 (GSK3β kinase) [nM] | EC50 (IL-6) [nM] | EC50 [4] [nM] | percent in parentheses under EC50 >100 [4] | SMILES | EC50 [3] [nM] | inhibition at 10 µM (IL-6; read-out: percent inhibition at 10 μM) [%]
1 | 408 | > 10000 | > 10000 | 86 | > 10000 | > 100000 | (33.0%) | Cn1cc(-c2cc(F)c3[nH]nc(C(=O)NC4CCN(CC(F)F)CC4)c3c2)cn1 [Compound 101, N-(1-(2,2-Difluoroethyl)piperidin-4-yl)-7-fluoro-5-(1-methyl-1H-pyrazol-4-yl)-1H-indazole-3-carboxamide] | > 10000 | 14.1
2 | 3 | 268 | 1380 | 88 | 1330 | > 100000 | (33.1%) | Cc1cc(-c2ccc3[nH]nc(C(=O)Nc4ccc(OC5CCN(C)CC5)cc4)c3c2)sn1 [Compound 164, 5-(3-Methylisothiazol-5-yl)-N-(4-((1-methylpiperidin-4-yl)oxy)phenyl)-1H-indazole-3-carboxamide] | 305 | –
3 | 8 | 664 | 355 | 278 | 3520 | > 100000 | (12.3%) | CN1CCC(n2cc(-c3ccc4[nH]nc(C(=O)Nc5cncc(F)c5)c4c3)cn2)CC1 [Compound 125, N-(5-Fluoropyridin-3-yl)-5-(1-(1-methylpiperidin-4-yl)-1H-pyrazol-4-yl)-1H-indazole-3-carboxamide] | 599 | –
4 | 5 | 258 | 113 | 80 | 7370 | > 100000 | (3.5%) | CN1CCC(Oc2cccc(NC(=O)c3n[nH]c4cc(F)c(-c5cnn(C)c5)cc34)c2)CC1 [Compound 151, 6-Fluoro-5-(1-methyl-1H-pyrazol-4-yl)-N-(3-((1-methylpiperidin-4-yl)oxy)phenyl)-1H-indazole-3-carboxamide] | > 10000 | –
